The results in this text go back to ChEMBL document CHEMBL1201862, “PubChem BioAssay data set” (2004).

Common to all, as to assay: NCI-60 cell line screen, 48 h
The test system of assay [1] is NCI-H460.
Assay [2] relates to ACHN.
Assay [3] concerns OVCAR-8.
In assay [4] the test system is MCF7.
Assay [5] has as its system HCT-15.
Assay [6] has as its system CAKI-1.
Assay [7] relates to SW-620.
Assay [8] concerns RPMI-8226.
For assay [9], the system named is A549.
The subject of assay [10] is SN12C.
Assay [11] relates to SK-MEL-28.
The test system of assay [12] is HT-29.
Assay [13] relates to OVCAR-4.
The subject of assay [14] is IGROV-1.
Assay [15] concerns HOP-92.
Assay [16] concerns MOLT-4.
The test system of assay [17] is UO-31.
Assay [18] deals with KM12.
The subject of assay [19] is EKVX.
Assay [20] has as its system SF-539.

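Protocol summary: plate cells (96-well), add compound at 5 concentrations, incubate 48 h, interpolate endpoints linearly. GI50: concentration for 50% inhibition of growth.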 Calls of active or inactive are those of the source. Rule as the data show it: active = GI50 up to about 1.1 µM and inactive = higher.

On to `CN1C[C@H]2[C@@H](C1=O)[C@H](c1ccccc1)ON2C`, for which the GI50 was > 100 µM (inactive) in [1]; > 100 µM (inactive) in [2]; > 100 µM (inactive) in assay [3]; > 100 µM (inactive) in assay [4]; greater than 100 µM in assay [5]; > 100 µM (inactive) in assay [6]. Further, the GI50 in assay [7], in assay [8], in assay [9], in [10], in assay [11] and in assay [12] was > 100 µM (inactive) each time. In addition, the GI50 in assay [13] was > 100 µM (inactive); in assay [14], > 100 µM (inactive); in assay [15] it was 59.2 µM (inactive); in assay [16], > 100 µM (inactive); in [17] it was > 100 µM (inactive).

In the case of `O=C(Nc1ccc(C2=NCCN2)cc1)c1cncc(C(=O)Nc2ccc(C3=NCCN3)cc2)c1`, the GI50 was > 100 µM (inactive) in assay [1]; > 100 µM (inactive) in assay [3]; > 100 µM (inactive) in assay [4]; > 100 µM (inactive) in assay [18]; greater than 100 µM in [5]; > 100 µM (inactive) in [6]. Further, the GI50 is > 100 µM (inactive) in assay [7]; > 100 µM (inactive) in assay [19]; > 100 µM (inactive) in [8]; > 100 µM (inactive) in [9]; > 100 µM (inactive) in assay [10]; > 31.6 µM (inactive) in assay [11]. For the same compound, the GI50 in [12], in assay [13], in assay [14], in assay [15], in [16] and in assay [17] was > 100 µM (inactive) throughout. In addition, the GI50 in [20] was > 100 µM (inactive).

Turning to `CCCCCCCC/C=C\CCCCCCCCNc1ccn(C2OC(COP(=O)(O)OC3CC(n4cc(F)c(=O)[nH]c4=O)OC3CO)C(O)C2O)c(=O)n1` (stereo not given), the GI50 is 0.0177 µM (active) in assay [2]; 0.329 µM (active) in assay [3]; < 0.0394 µM (active) in assay [4]; 45 µM (inactive) in assay [18]; 2.48 µM in assay [5]; 2.09 µM (inactive) in assay [6]. The GI50 is > 41.3 µM (inactive) in assay [7]; > 100 µM (inactive) in [19]; 0.0509 µM (active) in [8]; < 0.0194 µM (active) in assay [9]; > 100 µM (inactive) in assay [10]; 32.1 µM (inactive) in assay [11]. The GI50 is 4.19 µM (inactive) in assay [12]; > 91.8 µM (inactive) in assay [13]; > 26.7 µM (inactive) in assay [14]; 7.93 µM (inactive) in [15]; 0.471 µM (active) in assay [16]; 0.198 µM (active) in assay [17]. Also, the GI50 in assay [20] is < 0.0484 µM (active).

In the case of `O=C1CSC(c2ccccc2)N1c1ccc(-c2ccc(-n3c(-c4ccccc4)nc4ccccc4c3=O)cc2)cc1` (stereo not given), the GI50 in assay [1] was 46 µM (inactive); in assay [2], 53 µM (inactive); in assay [3], 44.4 µM (inactive); in [4], 35.1 µM (inactive); in [18] it was 26.2 µM (inactive); in assay [5], 29.2 µM. The GI50 was > 100 µM (inactive) in assay [6]; 97.7 µM (inactive) in assay [7]; 55.3 µM (inactive) in [19]; 36.8 µM (inactive) in assay [8]; 41.7 µM (inactive) in [9]; > 100 µM (inactive) in assay [10]. Besides, the GI50 in [11] was > 100 µM (inactive); in assay [12], 46.1 µM (inactive); in assay [13], 30.5 µM (inactive); in assay [14], > 100 µM (inactive); in [15], > 100 µM (inactive); in assay [16], 19.6 µM (inactive). Also, the GI50 in assay [17] is 49.8 µM (inactive).

As to `CCOc1cc(C2CC(c3ccc(NS(=O)(=O)c4cc([N+](=O)[O-])ccc4C)cc3)=NN2S(=O)(=O)c2cc([N+](=O)[O-])ccc2C)ccc1O` (stereo not given), the GI50 was 39.6 µM (inactive) in assay [2]; 42.8 µM (inactive) in [3]; 31.9 µM (inactive) in assay [4]; 41.1 µM (inactive) in [18]; 39 µM in assay [5]; 42.9 µM (inactive) in assay [6]. The GI50 in assay [7] is 64.7 µM (inactive); in [19], 22.1 µM (inactive); in assay [8] it was 34.3 µM (inactive); in assay [9], 32.4 µM (inactive); in assay [10] it was 28.4 µM (inactive); in assay [11] it was 83 µM (inactive). In addition, the GI50 in assay [12] was 49.3 µM (inactive); in assay [13] it was 38.6 µM (inactive); in [14], 18.5 µM (inactive); in [15], 17.5 µM (inactive); in assay [16] it was 30.4 µM (inactive); in assay [17], 32.6 µM (inactive). Besides, the GI50 in [20] is 33.7 µM (inactive).

For `CCOP(=O)(OCC)/C(C#N)=C/c1cccn1Cc1ccccc1`, the GI50 was 31.9 µM (inactive) in assay [1]; 34.4 µM (inactive) in [2]; 33.6 µM (inactive) in [3]; 29.5 µM (inactive) in assay [4]; 26.9 µM (inactive) in [18]; 29 µM in assay [5]. The GI50 in assay [6] was 42.2 µM (inactive); in [7] it was 25.8 µM (inactive); in assay [19] it was 38 µM (inactive); in assay [9], 34.8 µM (inactive); in assay [10], 31.1 µM (inactive); in assay [11], 19.7 µM (inactive). Moreover, the GI50 in assay [12] is 32.7 µM (inactive); in assay [14], 26.1 µM (inactive); in [15], 13.5 µM (inactive); in [16] it was 17.2 µM (inactive); in assay [17], 24.4 µM (inactive); in assay [20], 18.5 µM (inactive).

For `COc1cc(C2c3[nH]c4ccccc4c3[C@@H](Nc3ccc(F)cc3)[C@H]3COC(=O)N23)cc(OC)c1O` (stereo not given in full), the GI50 in [1] is 0.957 µM (active); in assay [2] it was 0.248 µM (active); in assay [3], 2.7 µM (inactive); in [4], 0.622 µM (active); in assay [18], 1.91 µM (inactive); in assay [5], 1.66 µM. The GI50 in assay [6] is 0.828 µM (active); in assay [7] it was 1.23 µM (inactive); in assay [19], 2.55 µM (inactive); in [9], 0.465 µM (active); in assay [10], 1.35 µM (inactive); in assay [11] it was 2.01 µM (inactive). Also, the GI50 in assay [12] is 3.12 µM (inactive); in [13] it was 2.55 µM (inactive); in assay [14], 1.32 µM (inactive); in [15] it was 2.26 µM (inactive); in [16], 0.287 µM (active); in assay [17], 1.09 µM (active). Further, the GI50 in assay [20] was 1.26 µM (inactive).

As for `C[C@H]1[C@@H]2C[C@@H]3O[C@@]34[C@H]3CCC5Cc6nc7c(nc6C[C@@]5(C)[C@]3(O)CC(=O)[C@@]24CO[C@]12OC(C)(C)C[C@@H]2O)CC1CC[C@@H]2C3=C[C@H]4O[C@@]5(OC(C)(CO)C[C@@H]5O)[C@H](C)[C@@]4(O)[C@]3(C)[C@@H](O)CC2[C@]1(C)C7` (stereo not given in full), the GI50 in assay [1] is 0.00955 µM (active); in assay [3], 3.02 µM (inactive); in assay [4], 0.0345 µM (active); in [18], 0.0706 µM (active); in assay [5], 0.121 µM; in assay [6], 0.0809 µM (active). The GI50 is 0.0333 µM (active) in assay [7]; 0.0573 µM (active) in [19]; 0.00139 µM (active) in [8]; 0.0168 µM (active) in [9]; > 3.52 µM (inactive) in [10]; 0.014 µM (active) in assay [12]. For the same compound, the GI50 in assay [13] was 0.194 µM (active); in assay [14], 0.0291 µM (active); in assay [15], 0.0254 µM (active); in assay [17] it was 0.223 µM (active); in assay [20], 0.0179 µM (active).

For `COC(=O)[C@@H]1c2cc3c(c(O)c2[C@@H](OC)C[C@@]1(C)O)C(=O)c1c(O)cc2c(c1C3=O)OC1O[C@@]2(C)[C@H](O)[C@@H](N(C)C)[C@@H]1O`, the GI50 in assay [1] was 0.129 µM (active); in assay [3], 0.234 µM (active); in [4] it was 2.72 µM (inactive); in assay [18] it was 0.379 µM (active); in assay [5], 0.597 µM; in [6] it was 0.26 µM (active). Besides, the GI50 in assay [7] was 0.193 µM (active); in assay [19] it was 0.345 µM (active); in assay [8], 0.192 µM (active); in assay [9], 0.435 µM (active); in assay [10] it was 0.254 µM (active); in assay [11] it was 0.667 µM (active). Also, the GI50 was 0.355 µM (active) in assay [12]; 0.395 µM (active) in assay [13]; 0.291 µM (active) in assay [14]; 0.0764 µM (active) in assay [15]; 0.143 µM (active) in assay [16]; 1.14 µM (inactive) in [17]. Further, the GI50 in [20] was 2.69 µM (inactive).

Regarding `Cn1c2ccccc2c(=O)c2c(O)cc3c(c21)C=CC(C)(C)O3` [NORACRONYCINE], the GI50 in assay [1] is > 25 µM (inactive); in assay [3], 2.5 µM (inactive); in [4], > 25 µM (inactive); in assay [18] it was > 25 µM (inactive); in assay [5], greater than 25 µM; in assay [6], 3.05 µM (inactive). Also, the GI50 is 12.2 µM (inactive) in assay [7]; > 21.1 µM (inactive) in [19]; > 25 µM (inactive) in [8]; > 25 µM (inactive) in assay [9]; > 25 µM (inactive) in [10]; > 25 µM (inactive) in assay [11]. For the same compound, the GI50 in [12] is > 25 µM (inactive); in [13], > 25 µM (inactive); in assay [14] it was > 25 µM (inactive); in [15], > 25 µM (inactive); in [16], 6.28 µM (inactive); in assay [17] it was > 25 µM (inactive). Moreover, in assay [20], the GI50 is > 25 µM (inactive).
